From PubChem BioAssay AID179 (DTP/NCI, 2004) come the findings set out here.

In this test the test system is CEM cells HIV-1 protection, formazan growth assay. Put plainly: NCI AIDS Antiviral Assay. Conditions: for IC50: measured here: growth of uninfected CEM cells. A digest of the protocol: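 Five concentrations of each compound were applied to infected and uninfected human CEM cells. Protection from HIV-1 was judged from growth measured with a soluble formazan assay.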

Calls of active or inactive are those of the source.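 The calls were made as follows: active = compounds giving half or more protection of infected cells from virus-caused growth loss, again on retest; inactive = the rest.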 Where a SMILES comes first, the peptide text is derived from it. [ ]: non-standard residue; d: D form. The star is where a group is joined. ξ: configuration not given here. Bz = O=C(c1ccccc1)*; ξC = NC(CS)C(=O)O

`NS(=O)(=O)c1ccc(NNc2c3ccccc3nc3c(C(=O)Nc4ccc(S(N)(=O)=O)cc4)cccc23)cc1`: the EC50 is more than 200 µM and the half-maximal inhibitory concentration (IC50) stood at 10.5 µM.

On to `N#CC(C(=O)CCC(=O)Nc1ccc(Cl)cc1)c1ccc(Cl)cc1` (stereo unspecified), for which the outcome was inactive.

Take `NCC(SSC(CN)C(=O)O)C(=O)O` (stereo unspecified): the EC50 was more than 200 µM and the IC50 is more than 200 µM. As for `O=C1OC(c2cccc(C(F)(F)F)c2)(c2cccc(C(F)(F)F)c2)c2ccc3ccccc3c21`, the result was inactive.

For the compound `O=C(Nc1ccc(Cl)cc1Cl)c1c/c(=N\O)c2ccc(O)cc2o1`, the outcome was inactive. Consider `NC1=NS(=O)(=O)Nc2nn(-c3ccccc3)nc21`, for which the EC50 is more than 339 µM and the IC50 was more than 339 µM.

On to `CN(C)CCNC(=O)c1cccc2c(Nc3ccc(S(=O)(=O)N=C(N)N)cc3)c3ccccc3nc12`, for which the outcome was inactive. The same measure, in the same setting: the entry for `Cc1nnc2sc3ccccc3n12` is “inactive”. For the compound `COc1ccc(C2CC(C)=Nc3c([nH]c(=S)[nH]c3=O)N2)cc1` (stereo unspecified), the EC50 is more than 16.6 µM and the IC50 was more than 16.6 µM.

In the case of `CC(CSC(=N)N)C(N)=O` (stereo unspecified), the EC50 was more than 200 µM and the IC50 was more than 200 µM. On to `O=C(Nc1ccccc1)N(C1=NCC(CI)S1)c1ccc(F)c(F)c1` (stereo unspecified), for which the EC50 was more than 200 µM and the IC50 was 18.2 µM. The like results for `C=CC(=O)N1C/C(=C\c2ccccc2)C(=O)/C(=C/c2ccccc2)C1` were, in that order, more than 15.8 µM and 0.933 µM. In the same order, the values of `COC(=O)C(CS)NC(=O)CNC(=O)c1ccccc1` (stereo unspecified) (Bz-Gly-[ξC]-OMe) are more than 851 µM and 46.8 µM. On to `COc1cccc(/C=C/C(=O)c2ccccc2)c1`, for which the EC50 is more than 57.5 µM and the half-maximal inhibitory concentration (IC50) came to 11 µM. With `CCOC(=O)/C=C/c1ccc2c(c1)OC(CO)[C@H](c1ccc(O)c(OC)c1)O2` (stereo partly specified), the EC50 was more than 339 µM and the IC50 was determined as 77.6 µM. In the same order, the values of `O=[N+]([O-])c1ccc(-c2nnc(C34CC5CC(CC(C5)C3)C4)o2)cc1` are more than 200 µM and more than 200 µM. Consider `COc1cc(N(C)C)c(OC)cc1C=C1C=CC=C1`, for which the EC50 is more than 977 µM and the IC50 is 0.407 µM. In the same order, the values of `O=C(Nc1cccc([N+](=O)[O-])c1)C(=O)C(C(=O)c1ccccc1-c1ccccc1)C1OC(=O)c2ccccc21` (stereo unspecified) are more than 69.2 µM and 33.1 µM. `CC(=O)OCC1(C)C(OC(C)=O)CCC2(C)C(CC(OC(C)=O)C3=CCOC3=O)C(O)(CO)CCC12` (stereo unspecified): the outcome was inactive. In the case of `CCOC(=O)Cc1csc2[n+]1C(=O)/C(=C/c1cccc(OC)c1O)S2`, the EC50 was more than 200 µM and the IC50 was 174 µM. With `O=C(/C=C\c1ccc(/C=C/C(=O)Nc2cccc(C3=NCCCN3)c2)cc1)Nc1cccc(C2=NCCCN2)c1`, the EC50 was more than 44.7 µM and the half-inhibitory concentration (IC50) turned out to be 8.13 µM. In the same order, the values of `COc1cccc2c1[C@]1(O)C(O)CCCC21` (stereo partly specified) are more than 200 µM and more than 200 µM.

On to `COC(=O)Nc1cn2cc(C(=O)c3cccs3)ccc2n1`, for which the EC50 was more than 9.12 µM and the IC50 was found to be 0.0331 µM.

For `c1ccc(N=C(Nc2ccccc2)N2CCCC2)cc1`, the EC50 is more than 200 µM and the half-inhibitory concentration (IC50) was determined as 174 µM. The like results for `COC(=O)C(=O)C(/C=N/C(=S)NC1CCCCC1)=C(\O)c1ccc(F)cc1` were, in that order, more than 200 µM and more than 200 µM. As to `COP(=O)(OC)C(=O)N1N(c2ccc([N+](=O)[O-])cc2)C(=O)C(C)NC1(NNc1ccc([N+](=O)[O-])cc1)P(=O)(OC)OC` (stereo unspecified), the EC50 is more than 107 µM and the concentration for half-maximal inhibition (IC50) amounted to 56.2 µM. For `O=C(O)CCNS(=O)(=O)c1ccc([N+](=O)[O-])cc1`, the outcome was inactive. In the case of `COC(=O)c1cc(C(=CCCC(C)[C@H]2CCC3C4CC[C@@H]5CCCC[C@]5(C)C4CC[C@@]32C)c2cc(Cl)c(OC)c(C(=O)OC)c2)cc(Cl)c1OC` (stereo partly specified), the EC50 was more than 200 µM and the half-maximal inhibitory concentration (IC50) came out at 39.8 µM. In the same order, the values of `O=C1c2cccc3cccc(c23)C(=O)N1CCO` are more than 200 µM and 13.8 µM.

One may read the EC50 as the midpoint of the concentration-response curve. Usually IC50 stands for the concentration that inhibits the measured activity by half. A higher IC50 goes with weaker potency.
